Laboratory results published in patent publication US9408873B2, “Pharmaceutical composition comprising stem cells treated with NOD2 agonist or culture thereof for prevention and treatment of immune disorders and inflammatory diseases” (KANG STEM BIOTECH CO., LTD., priority 2010, dated 2016).
“Also recorded” adds a separate entry of the source.

Assays:
COX-2 = COX-2 expression in hUCB-MSCs (immunoblot); type: cell-based, human; conditions: 24 hours with agonist
Experimental: Cells were treated with 1 μg/mL Pam3CSK4 (TLR2 agonist), 1 μg/mL LPS (TLR4 agonist), 10 μg/mL Tri-DAP (NOD1 agonist) or 10 μg/mL MDP (NOD2 agonist) and cultured for 24 hours. Then, the collected cells were lysed using 1% Nonidet-P40 buffer containing 2 mM dithiothreitol and protease cocktail (Roche, US). The cell lysates were resolved by 12% SDS-PAGE, and transferred onto a nitrocellulose membrane. Then, immunostaining was performed using primary antibodies (COX-2, GAPDH (Santa Cruz biotechnology, Santa Cruz, Calif., USA)). Thereafter, immunostaining was performed using secondary antibodies, and proteins were detected using an enhanced chemiluminescence (ECL) reagent (Intron Biotechnology).
To investigate a correlation between COX-2 expression and the function of NOD2 and Rip2, cells were first treated with MDP and further treated with siNOD2 and siRip2. Then the COX-2 expression level was examined. Protein expression level was measured by using the method described in Example 5-2, and the method for siRNA treatment was the same as described in Example 3-3.

mouse splenocytes [1] = assay: Xenogeneic mouse splenocyte proliferation in hUCB-MSC culture medium; type: cell-based
hUCB-MSCs [2] = assay: TGF-β1 production by hUCB-MSCs; type: cell-based, human; conditions: 24 hours with agonist
Experimental: (§1) Soluble factors such as hepatocyte growth factor, TGF-β1, indoleamine 2,3 dioxygenase-1 (IDO-1), nitric oxide (NO), and prostaglandin E2 (PGE2) are the strong candidates for regulating immunosuppression by MSC. In order to determine whether TLR and NLR agonists induce the production of soluble factors including NO, PGE2 and TGF-β1 in hUCB-MSCs, the cells were cultured with Pam3CSK4, LPS, Tri-DAP, and MDP for 24 hours, and culture supernatants were collected. Secretion of the soluble factors was monitored by the method described in Examples 5-1 and 5-2.

human MNC = assay: Human MNC proliferation under direct cell to cell contact with hUCB-MSC; type: cell-based; conditions: direct cell to cell interaction
Excerpt: In the present experiment, the inventors investigated whether TLR and NLR agonists enhance the suppressive activity of hUCB-MSC against human […] proliferation. Based on the study that identified the importance of a direct interact ion between MSCs and lymphocytes in inhibition of lymphocyte proliferation by MSCs, the present inventors investigated whether MDP has an effect on the suppressive ability of hUCB-MSCs against MNC proliferation under the conditions where two cell groups are in contact with each other.

hUCB-MSCs [3] = assay: PGE2 secretion by hUCB-MSCs (ELISA); type: cell-based, human
Experimental: The hUCB-MSCs (2×10^4 cells/well) were cultured in MSC medium supplemented with 2% FBS in a 96-well plate. After 24 hrs of culturing, the cells were treated with 1 μg/mL Pam3CSK4 (TLR2 agonist), 1 μg/mL LPS (TLR4 agonist), 10 μg/mL Tri-DAP (NOD1 agonist) or 10 μg/mL MDP (NOD2 agonist) and cultured for additional 24 hours, then the culture supernatant of each sample was collected. After centrifugation, the culture supernatants were filtered through a 0.2 μm filter. Then, PGE2 concentration was measured using an ELISA kit (R&D Systems, Minneapolis, Minn., USA) following the manufacture's protocol.
To determine the sustainment time of the effects of MDP treatment, the amount of PEG2 produced was monitored after 1 day-long treatment of hUCB-MSCs with MDP. In this experiment, MDP was removed after 1 day of culturing by removing the culture medium and washing the cells with phosphate buffered saline (PBS) 5 times. Then the amount of PEG2 produced was measured. Meanwhile, cells were treated with MDP by the same method described in Example 5-1, and PGE2 concentration was measured. Also, in order to determine the effects of NOD2, Rip2 and COX-2 on PGE2 expression, the cells were treated with each of the control group of Example 3-3 i.e. siRNA (siCTL), siNOD2, siRip2 and COX-2 inhibitor called indomethacin (Sigma (St. Louis, Mo., USA).
as §1

hMNC [4] = assay: IL-10 production by MNC cultured with UCB-MSC supernatant and ConA (ELISA); type: cell-based, human
Experimental: In order to determine the production level of IL-10, hUCB-MSCs (1×10^5 cells/well) were cultured in MSC medium supplemented with 2% FBS in a 24 well plate. About 24 hours later, the cells were treated with siNOD2 or indomethacin (Indo), and further cultured for 24 hours. Then the cells were washed five times, and fresh RPMI was added. After 5 days of culturing, UCB-MSC supernatant (UMS) was obtained. MNCs (1×10^6/well) were cultured with UMS and ConA (Sigma (St. Louis Mo., USA)). After 3 days of culturing, cell supernatant was collected, centrifuged, and filtered through a 0.2 μm filter. Then, IL-10 concentration was measured using an ELISA kit (R&D Systems, Minneapolis, Minn., USA).
PGE2 produced in bone marrow stromal cells is known to take an important role in IL-10 production by host macrophages (Nemeth, K., A. et al., Bone marrow stromal cells attenuate sepsis via prostaglandin E(2)-dependent reprogramming of host macrophages to increase their interleukin-10 production. Nat Med 15:42-49, 2009). MDP induces PGE2 production in hUCB-MSCs, and thus the present inventors examined whether IL-10 production in hMNCs is increased in the presence of MDP-UCM. The experiment was performed by the same method described in Example 5-6.

hUCB-MSCs [5] = assay: IL-8 production in hUCB-MSCs after stimulation by receptor agonists (ELISA); type: cell-based, human; conditions: 24 hours with agonist
Experimental: After conforming the expression of the receptors of interest in hUCB-MSC in Example 2-1, the functionality of the receptors investigated by monitoring IL-8 production after stimulation by agonists. For this experiment, hUCB-MSCs were cultured at a density of 2×10^4 cells/well in KSFM medium supplemented with 2% FBS in a 96-well plate. After 24 hours of culturing, the cells were treated with the following agonists corresponding to each of the receptors, i.e., Pam3CSK4 (TLR2 agonist, Pam3), LPS (TLR4 agonist), Tri-DAP (NOD1 agonist, T-DAP), and MDP (NOD2 agonist). Then the samples were incubated for additional 24 hours. The supernatant of each culture was collected, centrifuged, and filtered through a 0.2 μm filter. Then, concentrations of IL-8 and PGE2 were measured using an ELISA kit (R&D Systems, Minneapolis, Minn., USA). Ultrapure LPS (E. coli O111:B4), Pam3CSK4, and Tri-DAP were purchased from Invivogen (San Diego, Calif., USA), MDP [Ac-(6-O-stearoyl)-muramyl-Ala-D-Glu-NH2; muramyl dipeptide] was purchased from Bachem (Bubendorf, Switzerland). Recombinant human Interferon-γ was purchased from Peprotech (Rockyhill, N.J., USA).

hMNC [6] = assay: hMNC proliferation cultured with PGE2; type: cell-based, human; conditions: PGE2 at a concentration of 10 ng/mL or higher
Experimental: (§2) In order to investigate the effect of PGE2 on mononuclear cell (MNC) proliferation, hMNC and mouse splenocytes were cultured with various concentrations of PGE2. The experiment was performed by the same method described in Example 5-5.

mouse splenocytes [7] = assay: Mouse splenocyte proliferation cultured with PGE2; type: cell-based; conditions: PGE2 at a concentration of 10 ng/mL or higher
Experimental: as §2

MNC = MNC proliferation in culture medium/supernatant of agonist-treated hUCB-MSC; type: cell-based, human; conditions: for MNC proliferation in culture medium of agonist-treated hUCB-MSC: hUCB-MSC #618, MNC cultured 3 days
Experimental: Soluble factors are also known to mediate immunosuppression by MSC. So the present inventors examined whether secretory factors generated by UCB-MSCs have an effect on human MNC proliferation. Culture medium (CM) was prepared, and hUCB-MSCs were co-cultured with the agonist for 24 hours. After washing, the cells were cultured fresh for additional […]. Then, a control group containing culture medium (CM) and sample of hUCB-MSCs treated with agonist (#613) were prepared, and MNCs were cultured in CM containing hUCB-MSCs for 3 days.
To determine whether MDP enhances the immunosuppressive activity of in UCB-MSC, the following experiment was performed. A control group containing culture medium (CM) of hUCB-MSC was prepared and the agonist-treated hUCB-MSCs were collected on the 5th day of culturing. Then, MNC was co-cultured in CM of hUCB-MSC for 3 days more, and after culturing, the level of MNC proliferation was monitored.
Additionally, to investigate the correlation among NOD2, Rip2 and MDP in MNC inhibition, the following experiment was conducted using siRNAs of […] and Rip2 and a control group (siCTL). When the cell density reached 60%, siRNAs were transfected into the cells. The siRIPK2 (M-003602-02) which is the siRNA of receptor-interacting serine-threonine kinase 2 (RIPK2 or receptor interacting kinase protein 2 (Rip2) which is the adaptor of […] and NOD2 and the type of kinase called RICK or CARDIAK (Bertin et al, 1999; Inohara et al, 1999; Ogura et al, 2001b)), siNOD2 (J-011338-07) which is the siRNA of NOD2, and a non-targeting control (siControl #1, D-001810-01) were purchased from Dharmacon (Chicago, Ill., USA). DharmaFECT1 (Dharmacon) was used as a transfection reagent, and siRNA was transfected at a concentration of 100 nmol/L. About 48 hours later, the medium was replaced with the fresh one, and the cells were treated with 10 μg/mL of MDP (NOD2 agonist) for 24 hours, except for a negative control (culture medium of MNC only) and a positive control (medium added with UCB-MSC supernatant (UMS) without agonist).
That is, a medium where MNC was cultured alone (i), and a medium added with UCB-MSC supernatant (UMS) without agonist (ii) were prepared as control groups, and a medium treated with MDP and UMS (iii), a medium treated with MDP, UMS, and control siRNA (siCTL) (iv), a medium treated with MDP, UMS and siNOD2 (v), and a medium treated with MDP, UMS, and siRip2 (vi) were prepared. Thereafter, MNC proliferation was measured by optical density at the wavelength of 450 nm.
In order to investigate the role of PGE2 in inhibition of MNC by hUCB-MSC, MNC proliferation was examined when treated with the MSC supernatant, MDP-treated MSC supernatant, and MDP and indomethacin (COX-2 inhibitor)-treated MSC supernatant. The experiment was performed by the same method described in Example 3.

hMNCs = assay: Treg population (CD4, CD25, Foxp3) in hMNCs cultured with UCM, flow cytometry; type: cell-based, human
Experimental: Next, the present inventors investigated the effect of UCM on differentiation of hMNC into regulatory T cells (Treg). For this, hMNCs were cultured with UCM for 5 days, and co-expression of CD4, CD25, and Foxp3 in hMNCs was determined by Flow cytometry.

## CCCCCCCCCCCCCCCCCC(=O)OCC1OC(O)C(NC(C)=O)C(OC(C)C(=O)NC(C)C(=O)NC(CCC(=O)O)C(N)=O)C1O [MDP, Ac-(6-O-stearoyl)-muramyl-Ala-D-Glu-NH2]
COX-2
  COX-2 expression: enhanced COX-2 expression; also recorded: increased
Mouse splenocytes [1]
  proliferation of xenogeneic mouse splenocytes in UCM: this inhibitory effect was enhanced by MDP stimulation
hUCB-MSCs [2]
  TGF-β1 production: enhanced only by addition of MDP
Human MNC
  effect of agonist on suppressive activity of hUCB-MSCs against MNC proliferation: did not affect the suppressive activity of hUCB-MSCs against MNC proliferation
hUCB-MSCs [3]; MDP removed after 1 day, 5th day of culturing
  PGE2 production level after removal of MDP: greater than that in the control group
hUCB-MSCs [3]; hUCB-MSCs, 24 hours with agonist (MDP 10 μg/mL)
  PGE2 secretion: significantly enhanced PGE2 secretion; also recorded: enhanced only by addition of MDP
hMNC [4]; MNC cultured 3 days with UCB-MSC supernatant and ConA
  IL-10 production by MNC: remarkably increased
hUCB-MSCs [5]
  IL-8 production: increased IL-8 production in hUCB-MSCs in a dose-dependent manner

## CCCCC[C@H](O)/C=C/[C@H]1[C@H](O)CC(=O)[C@@H]1C/C=C\CCCC(=O)O [PGE2, (5Z, 11(alpha),13E,15S)-11,15-dihydroxy-9-oxo-prosta-5,13-dien-1-oic acid]
hMNC [6]
  proliferation of hMNC: remarkably inhibited
Mouse splenocytes [7]
  proliferation of mouse splenocytes: remarkably inhibited

## C[C@H](N)C(=O)N[C@H](CCC(=O)NC(CCCC(N)C(=O)O)C(=O)O)C(=O)O (stereo partly shown) [Tri-DAP, Tri-diaminopimelic Acid]
Human MNC
  effect of agonist on suppressive activity of hUCB-MSCs against MNC proliferation: did not affect the suppressive activity of hUCB-MSCs against MNC proliferation
MNC
  MNC proliferation in culture medium of agonist-treated hUCB-MSC: this effect was absent
MNC; listed as T-DAP
  MNC proliferation in culture medium of agonist-treated hUCB-MSC: only slightly inhibited
hUCB-MSCs [5]
  IL-8 production: increased IL-8 production in hUCB-MSCs in a dose-dependent manner

## COc1ccc2c(c1)c(CC(=O)O)c(C)n2C(=O)c1ccc(Cl)cc1 [indomethacin]
hMNCs
  effect on the increase in Treg population by MDP-UCM: reversed
hUCB-MSCs [3]; hUCB-MSCs / MDP-UCM
  effect on MDP-enhanced PGE2 production: MDP-enhanced PGE2 production was inhibited
MNC; co-treatment or siRNA of hUCB-MSC
  effect on the inhibition of MNC proliferation by MDP-treated MSC culture medium (MDP-UCM): MNC proliferation rate similar to that of the negative control group; also recorded: counteracted
hMNC [4]
  effect on MDP-increased IL-10 production by MNC: IL-10 production was suppressed; also recorded: reversed

## Pam3CSK4
Human MNC
  effect of agonist on suppressive activity of hUCB-MSCs against MNC proliferation: did not affect the suppressive activity of hUCB-MSCs against MNC proliferation
MNC
  MNC proliferation in culture medium of agonist-treated hUCB-MSC: this effect was absent
MNC; listed as Pam3
  MNC proliferation in culture medium of agonist-treated hUCB-MSC: only slightly inhibited
hUCB-MSCs [5]
  IL-8 production: increased IL-8 production in hUCB-MSCs in a dose-dependent manner
